The results in this text go back to ChEMBL document CHEMBL3991601, “The target landscape of clinical kinase drugs” (Science, 2017).

The structures appear in SMILES notation. Active and inactive are the calls of the source.

Test [1] deals with Tyrosine-protein kinase SYK (Homo sapiens, UniProt P43405).
Test [2] has as its target T1, ATP-dependent RNA helicase DDX1 (Homo sapiens, UniProt Q92499).
T1 sequence (Q92499 whole entry): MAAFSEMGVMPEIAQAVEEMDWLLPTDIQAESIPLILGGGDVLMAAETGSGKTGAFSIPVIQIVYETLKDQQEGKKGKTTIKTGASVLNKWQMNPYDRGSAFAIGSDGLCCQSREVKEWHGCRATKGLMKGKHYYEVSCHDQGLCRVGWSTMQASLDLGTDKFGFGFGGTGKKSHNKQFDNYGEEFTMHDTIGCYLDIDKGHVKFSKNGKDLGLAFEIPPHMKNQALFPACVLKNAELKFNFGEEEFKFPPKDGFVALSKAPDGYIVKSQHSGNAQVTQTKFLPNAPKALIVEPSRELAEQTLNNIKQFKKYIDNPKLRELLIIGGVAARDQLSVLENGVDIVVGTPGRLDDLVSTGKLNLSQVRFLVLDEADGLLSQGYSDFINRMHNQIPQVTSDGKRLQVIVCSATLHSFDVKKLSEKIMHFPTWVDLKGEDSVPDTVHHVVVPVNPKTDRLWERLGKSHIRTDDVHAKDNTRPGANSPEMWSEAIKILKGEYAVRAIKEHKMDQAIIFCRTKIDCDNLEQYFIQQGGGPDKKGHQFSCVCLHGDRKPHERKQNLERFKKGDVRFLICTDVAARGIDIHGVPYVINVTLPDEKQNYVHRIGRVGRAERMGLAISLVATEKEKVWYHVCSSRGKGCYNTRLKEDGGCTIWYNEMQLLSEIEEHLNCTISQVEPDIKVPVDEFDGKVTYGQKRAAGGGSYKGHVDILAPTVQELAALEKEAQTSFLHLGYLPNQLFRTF

Test [3] addresses T2, Serine/threonine-protein kinase Nek9 (Homo sapiens, UniProt Q8TD19).
T2 sequence (Q8TD19 whole entry): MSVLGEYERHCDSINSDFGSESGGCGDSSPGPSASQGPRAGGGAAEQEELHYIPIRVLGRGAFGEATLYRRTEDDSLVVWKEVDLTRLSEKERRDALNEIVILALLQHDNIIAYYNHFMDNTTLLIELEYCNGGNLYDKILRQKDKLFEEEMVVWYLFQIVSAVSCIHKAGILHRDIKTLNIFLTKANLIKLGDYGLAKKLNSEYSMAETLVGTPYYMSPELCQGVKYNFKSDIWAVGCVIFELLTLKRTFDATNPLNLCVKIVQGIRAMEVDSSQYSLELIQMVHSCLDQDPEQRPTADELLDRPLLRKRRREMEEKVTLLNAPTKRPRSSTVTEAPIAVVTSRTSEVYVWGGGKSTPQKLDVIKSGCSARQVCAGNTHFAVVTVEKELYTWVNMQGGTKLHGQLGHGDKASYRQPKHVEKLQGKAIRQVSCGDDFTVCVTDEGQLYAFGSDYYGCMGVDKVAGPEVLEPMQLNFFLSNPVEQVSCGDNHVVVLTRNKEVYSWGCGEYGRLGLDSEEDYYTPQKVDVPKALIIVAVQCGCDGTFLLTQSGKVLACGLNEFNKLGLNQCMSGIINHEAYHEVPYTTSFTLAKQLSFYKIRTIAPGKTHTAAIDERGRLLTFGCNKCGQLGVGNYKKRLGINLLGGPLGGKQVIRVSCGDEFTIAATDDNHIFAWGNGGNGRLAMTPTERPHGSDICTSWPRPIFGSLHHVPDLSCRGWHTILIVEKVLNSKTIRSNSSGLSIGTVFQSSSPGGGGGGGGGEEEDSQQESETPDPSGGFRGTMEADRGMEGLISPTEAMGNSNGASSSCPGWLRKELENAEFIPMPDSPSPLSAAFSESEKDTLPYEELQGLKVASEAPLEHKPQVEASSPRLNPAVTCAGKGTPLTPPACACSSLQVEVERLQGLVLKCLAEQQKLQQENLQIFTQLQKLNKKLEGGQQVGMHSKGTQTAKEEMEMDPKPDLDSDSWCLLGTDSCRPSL

Test [4] concerns the target T3, Delta(24)-sterol reductase (Homo sapiens, UniProt Q15392).
T3 sequence (Q15392 whole entry): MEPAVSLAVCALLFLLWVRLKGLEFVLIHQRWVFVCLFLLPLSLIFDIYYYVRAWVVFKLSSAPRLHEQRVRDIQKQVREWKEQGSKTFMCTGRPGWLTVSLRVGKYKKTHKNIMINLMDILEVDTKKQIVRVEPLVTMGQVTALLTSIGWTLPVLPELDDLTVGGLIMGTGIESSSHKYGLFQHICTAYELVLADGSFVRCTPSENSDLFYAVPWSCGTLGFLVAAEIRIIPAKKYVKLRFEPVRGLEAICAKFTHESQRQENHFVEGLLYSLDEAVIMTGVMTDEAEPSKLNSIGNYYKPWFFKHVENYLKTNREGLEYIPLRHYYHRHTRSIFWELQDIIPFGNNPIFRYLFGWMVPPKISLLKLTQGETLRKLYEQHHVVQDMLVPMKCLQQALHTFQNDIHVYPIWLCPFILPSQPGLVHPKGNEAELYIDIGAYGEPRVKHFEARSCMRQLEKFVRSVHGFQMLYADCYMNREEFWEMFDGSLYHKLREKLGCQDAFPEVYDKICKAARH

Test [5] has as its target Serine/threonine-protein kinase PAK 2 (Homo sapiens, UniProt Q13177).
For test [6], the target named is Serine/threonine-protein kinase/endoribonuclease IRE2 (Homo sapiens, UniProt Q76MJ5).
Sequence of Serine/threonine-protein kinase/endoribonuclease IRE2 (Q76MJ5 whole entry): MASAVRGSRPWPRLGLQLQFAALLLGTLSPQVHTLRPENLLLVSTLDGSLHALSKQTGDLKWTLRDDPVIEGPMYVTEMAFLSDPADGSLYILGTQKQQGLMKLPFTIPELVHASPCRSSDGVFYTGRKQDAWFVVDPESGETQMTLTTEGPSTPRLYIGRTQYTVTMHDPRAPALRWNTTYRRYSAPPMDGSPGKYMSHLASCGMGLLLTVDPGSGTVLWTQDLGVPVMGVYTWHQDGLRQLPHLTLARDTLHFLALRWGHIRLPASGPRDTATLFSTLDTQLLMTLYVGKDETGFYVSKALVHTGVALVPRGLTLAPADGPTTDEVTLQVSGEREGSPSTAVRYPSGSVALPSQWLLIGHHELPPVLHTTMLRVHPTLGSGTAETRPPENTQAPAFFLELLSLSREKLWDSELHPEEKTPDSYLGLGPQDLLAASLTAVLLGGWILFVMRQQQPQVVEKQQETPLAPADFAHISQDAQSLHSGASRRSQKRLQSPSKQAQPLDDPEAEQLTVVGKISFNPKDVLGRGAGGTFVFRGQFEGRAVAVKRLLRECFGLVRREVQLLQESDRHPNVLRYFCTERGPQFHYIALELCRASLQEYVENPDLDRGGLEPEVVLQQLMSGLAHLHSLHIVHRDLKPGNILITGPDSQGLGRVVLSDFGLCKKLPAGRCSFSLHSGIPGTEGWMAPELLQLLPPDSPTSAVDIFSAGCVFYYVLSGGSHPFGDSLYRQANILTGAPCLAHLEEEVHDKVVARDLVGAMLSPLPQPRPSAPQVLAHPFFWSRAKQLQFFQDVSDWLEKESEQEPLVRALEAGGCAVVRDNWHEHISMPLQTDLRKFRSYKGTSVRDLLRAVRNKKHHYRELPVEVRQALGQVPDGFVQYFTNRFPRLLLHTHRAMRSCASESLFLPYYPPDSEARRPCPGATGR
The target in test [7] is T4, MAP kinase-activated protein kinase 5 (Homo sapiens, UniProt Q8IW41).
T4 sequence (Q8IW41 whole entry): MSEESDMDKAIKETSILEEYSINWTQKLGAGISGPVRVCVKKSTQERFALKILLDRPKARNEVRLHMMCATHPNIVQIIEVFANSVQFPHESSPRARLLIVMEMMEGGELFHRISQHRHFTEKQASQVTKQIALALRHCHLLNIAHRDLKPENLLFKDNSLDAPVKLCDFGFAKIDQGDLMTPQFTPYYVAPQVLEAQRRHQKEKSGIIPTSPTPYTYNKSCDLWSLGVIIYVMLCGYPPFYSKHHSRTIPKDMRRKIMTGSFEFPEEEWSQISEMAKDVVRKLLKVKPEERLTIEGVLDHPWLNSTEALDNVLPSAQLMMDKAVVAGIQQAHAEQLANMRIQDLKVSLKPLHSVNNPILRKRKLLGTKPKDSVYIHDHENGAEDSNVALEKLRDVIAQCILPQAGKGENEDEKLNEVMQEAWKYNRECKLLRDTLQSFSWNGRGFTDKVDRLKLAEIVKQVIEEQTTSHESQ

In a further test the target is Activated CDC42 kinase 1 (Homo sapiens, UniProt Q07912).
Sequence of Activated CDC42 kinase 1 (Q07912 whole entry): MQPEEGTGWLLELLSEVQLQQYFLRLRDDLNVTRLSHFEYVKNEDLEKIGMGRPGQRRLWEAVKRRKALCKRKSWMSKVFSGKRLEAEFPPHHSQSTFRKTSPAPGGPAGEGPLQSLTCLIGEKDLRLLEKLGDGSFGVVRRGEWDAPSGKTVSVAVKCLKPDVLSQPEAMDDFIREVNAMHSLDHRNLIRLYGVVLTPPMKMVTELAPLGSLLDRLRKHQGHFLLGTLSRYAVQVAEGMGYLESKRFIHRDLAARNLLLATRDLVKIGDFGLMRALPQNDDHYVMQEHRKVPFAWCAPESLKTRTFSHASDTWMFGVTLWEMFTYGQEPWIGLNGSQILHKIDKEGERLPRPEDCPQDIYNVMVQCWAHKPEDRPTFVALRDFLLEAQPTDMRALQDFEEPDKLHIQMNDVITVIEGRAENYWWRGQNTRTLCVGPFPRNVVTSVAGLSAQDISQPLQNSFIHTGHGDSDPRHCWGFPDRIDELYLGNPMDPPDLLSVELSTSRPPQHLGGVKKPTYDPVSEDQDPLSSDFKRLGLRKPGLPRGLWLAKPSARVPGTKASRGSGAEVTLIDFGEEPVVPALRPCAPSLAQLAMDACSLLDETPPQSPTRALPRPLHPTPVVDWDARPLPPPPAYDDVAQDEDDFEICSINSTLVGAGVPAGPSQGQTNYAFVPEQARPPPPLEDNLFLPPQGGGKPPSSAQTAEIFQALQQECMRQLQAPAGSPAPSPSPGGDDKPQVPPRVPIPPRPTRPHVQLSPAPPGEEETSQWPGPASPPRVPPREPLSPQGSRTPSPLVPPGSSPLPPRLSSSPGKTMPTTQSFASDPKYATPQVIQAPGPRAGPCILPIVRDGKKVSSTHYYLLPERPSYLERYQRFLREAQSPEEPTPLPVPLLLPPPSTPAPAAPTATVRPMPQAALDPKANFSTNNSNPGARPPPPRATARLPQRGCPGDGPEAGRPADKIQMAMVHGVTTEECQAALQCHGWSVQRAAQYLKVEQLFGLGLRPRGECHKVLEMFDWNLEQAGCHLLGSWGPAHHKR
For a further test, the target named is DNA topoisomerase 2-beta (Homo sapiens, UniProt Q02880).
Sequence of DNA topoisomerase 2-beta (Q02880 whole entry): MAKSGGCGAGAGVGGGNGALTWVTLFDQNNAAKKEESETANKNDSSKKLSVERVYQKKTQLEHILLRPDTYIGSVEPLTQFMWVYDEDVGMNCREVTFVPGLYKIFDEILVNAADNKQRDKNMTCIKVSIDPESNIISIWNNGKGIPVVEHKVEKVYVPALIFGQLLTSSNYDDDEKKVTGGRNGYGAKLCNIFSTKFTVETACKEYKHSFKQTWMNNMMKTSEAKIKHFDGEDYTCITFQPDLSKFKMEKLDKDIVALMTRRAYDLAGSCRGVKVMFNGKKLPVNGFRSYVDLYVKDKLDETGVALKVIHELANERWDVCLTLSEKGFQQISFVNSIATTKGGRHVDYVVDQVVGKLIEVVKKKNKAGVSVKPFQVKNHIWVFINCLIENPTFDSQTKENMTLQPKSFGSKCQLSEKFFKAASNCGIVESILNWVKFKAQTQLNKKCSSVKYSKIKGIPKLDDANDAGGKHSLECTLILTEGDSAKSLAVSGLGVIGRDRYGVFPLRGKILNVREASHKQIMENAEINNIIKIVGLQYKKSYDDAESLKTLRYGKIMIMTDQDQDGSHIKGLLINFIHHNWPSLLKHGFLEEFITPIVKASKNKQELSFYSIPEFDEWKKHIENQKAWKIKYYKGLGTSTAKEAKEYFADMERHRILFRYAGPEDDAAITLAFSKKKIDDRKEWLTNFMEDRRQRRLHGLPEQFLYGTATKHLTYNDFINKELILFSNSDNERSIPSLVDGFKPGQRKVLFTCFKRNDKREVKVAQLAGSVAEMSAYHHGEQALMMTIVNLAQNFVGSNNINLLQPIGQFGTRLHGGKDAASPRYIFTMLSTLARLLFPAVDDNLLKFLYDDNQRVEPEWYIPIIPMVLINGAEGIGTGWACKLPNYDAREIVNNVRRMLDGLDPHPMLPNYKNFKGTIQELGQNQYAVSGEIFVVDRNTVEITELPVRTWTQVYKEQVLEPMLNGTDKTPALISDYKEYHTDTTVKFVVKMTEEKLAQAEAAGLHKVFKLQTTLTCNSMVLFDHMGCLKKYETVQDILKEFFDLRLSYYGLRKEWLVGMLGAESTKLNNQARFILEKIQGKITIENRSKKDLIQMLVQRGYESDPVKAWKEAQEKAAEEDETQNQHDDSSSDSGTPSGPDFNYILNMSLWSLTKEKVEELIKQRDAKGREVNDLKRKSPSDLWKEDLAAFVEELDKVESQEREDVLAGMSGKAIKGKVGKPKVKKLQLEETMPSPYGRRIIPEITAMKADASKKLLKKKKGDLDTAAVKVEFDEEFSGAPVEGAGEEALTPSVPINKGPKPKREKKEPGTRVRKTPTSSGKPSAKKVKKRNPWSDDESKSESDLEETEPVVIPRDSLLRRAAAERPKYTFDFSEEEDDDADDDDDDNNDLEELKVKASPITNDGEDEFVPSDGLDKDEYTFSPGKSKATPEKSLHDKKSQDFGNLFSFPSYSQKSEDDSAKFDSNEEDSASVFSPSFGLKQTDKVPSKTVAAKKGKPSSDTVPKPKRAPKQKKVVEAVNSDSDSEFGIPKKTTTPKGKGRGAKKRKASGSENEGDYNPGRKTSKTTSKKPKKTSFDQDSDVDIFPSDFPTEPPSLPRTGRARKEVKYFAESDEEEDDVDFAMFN
Also: in the data inactive means no Kd found up to 30 µM.

Sequence of Serine/threonine-protein kinase PAK 2 (Q13177 whole entry): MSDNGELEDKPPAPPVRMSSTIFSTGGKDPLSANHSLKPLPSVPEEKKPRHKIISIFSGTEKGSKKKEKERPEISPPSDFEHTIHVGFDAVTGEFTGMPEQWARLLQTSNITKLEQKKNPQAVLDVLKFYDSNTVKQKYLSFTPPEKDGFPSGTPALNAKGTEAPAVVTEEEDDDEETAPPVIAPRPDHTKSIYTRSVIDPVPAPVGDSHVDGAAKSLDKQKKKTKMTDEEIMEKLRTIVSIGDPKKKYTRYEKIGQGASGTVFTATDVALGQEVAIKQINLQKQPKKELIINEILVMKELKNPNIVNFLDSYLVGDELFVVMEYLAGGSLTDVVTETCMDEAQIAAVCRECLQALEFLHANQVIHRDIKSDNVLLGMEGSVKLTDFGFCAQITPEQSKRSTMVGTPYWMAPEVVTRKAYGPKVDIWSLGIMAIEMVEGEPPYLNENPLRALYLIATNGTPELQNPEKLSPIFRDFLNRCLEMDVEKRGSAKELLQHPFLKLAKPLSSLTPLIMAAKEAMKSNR

One may read the Kd as the equilibrium constant for the complex coming apart. As to `COc1cc(OC)c(/C=C/S(=O)(=O)Cc2ccc(OC)c(NCC(=O)O)c2)c(OC)c1` [RIGOSERTIB], the Kd in test [1], in test [2], in test [3], in test [4], in test [5] and in [6] was > 30 µM (inactive) each time. Further, the Kd (in test [7]; on Activated CDC42 kinase 1; on DNA topoisomerase 2-beta) was > 30 µM (inactive) in each case.
Turning to `CCn1c(=O)c(-c2cc[nH]n2)cc2c(C)nc(N)nc21` [VOXTALISIB], the Kd in [1], in test [2], in test [3], in [4], in test [5] and in [6] was > 30 µM (inactive) throughout. The Kd (in [7]; on Activated CDC42 kinase 1; at DNA topoisomerase 2-beta) was > 30 µM (inactive) each time.
As to `CCCS(=O)(=O)Nc1ccc(F)c(C(=O)c2c[nH]c3ncc(-c4ccc(Cl)cc4)cc23)c1F` [VEMURAFENIB], the Kd in test [1], in test [2], in test [3], in test [4], in [5] and in test [6] was > 30 µM (inactive) each time. Further, the Kd (in [7]; on Activated CDC42 kinase 1; on DNA topoisomerase 2-beta) was > 30 µM (inactive) throughout.
Turning to `O=C(Nc1ccc(-c2ccnc(Nc3ccc(N4CCOCC4)cc3)n2)cc1)C1CCCN1` (centres undefined) [XL-019], the Kd in [1] was > 30 µM (inactive); in test [2] it was > 30 µM (inactive); in test [3] it was 2.19 µM (active); in test [4], > 30 µM (inactive); in test [5], > 30 µM (inactive); in [6] it was > 30 µM (inactive). Further, the Kd (in test [7]; on Activated CDC42 kinase 1; on DNA topoisomerase 2-beta) was > 30 µM (inactive) throughout.
As for `Cn1ncc(Cl)c1-c1cc(C(=O)N[C@H](CN)Cc2cccc(F)c2)sc1Cl` [AFURESERTIB], the Kd in [1], in [2], in [3], in test [4], in test [5] and in test [6] was > 30 µM (inactive) in each case. Also, the Kd (in [7]; on Activated CDC42 kinase 1; at DNA topoisomerase 2-beta) was > 30 µM (inactive) in each case.
For the compound `CNC(=O)CN1CCC(Oc2cc3c(Nc4cccc(Cl)c4F)ncnc3cc2OC)CC1` [SAPITINIB], the Kd in [1], in [2], in [3], in [4], in [5] and in test [6] was > 30 µM (inactive) throughout. For the same compound, the Kd (in [7]; on Activated CDC42 kinase 1; on DNA topoisomerase 2-beta) was > 30 µM (inactive) in each case.
For `CC(=O)Nc1cccc(-n2c(=O)n(C3CC3)c(=O)c3c(Nc4ccc(I)cc4F)n(C)c(=O)c(C)c32)c1` [TRAMETINIB], the Kd in test [1], in [2], in [3], in test [4], in test [5] and in test [6] was > 30 µM (inactive) each time. Further, the Kd (in [7]; at Activated CDC42 kinase 1; on DNA topoisomerase 2-beta) was > 30 µM (inactive) in each case.
With `COC(=O)N[C@@H](C)CNc1nccc(-c2cn(C(C)C)nc2-c2cc(Cl)cc(NS(C)(=O)=O)c2F)n1` [ENCORAFENIB], the Kd in test [1], in test [2], in test [3], in test [4], in test [5] and in [6] was > 30 µM (inactive) each time. The Kd (in test [7]; on Activated CDC42 kinase 1; on DNA topoisomerase 2-beta) was > 30 µM (inactive) in each case.
On to `CNC(=O)c1ccc(-c2cnc3ncc(Cc4ccc5ncccc5c4)n3n2)cc1F` [CAPMATINIB], for which the Kd in test [1], in test [2], in test [3], in test [4], in [5] and in test [6] was > 30 µM (inactive) in each case. For the same compound, the Kd (in test [7]; at Activated CDC42 kinase 1; on DNA topoisomerase 2-beta) was > 30 µM (inactive) throughout.
In the case of `CCS(=O)(=O)N1CC(CC#N)(n2cc(-c3ncnc4[nH]ccc34)cn2)C1` [BARICITINIB], the Kd in test [1], in [2], in test [3], in [4], in test [5] and in test [6] was > 30 µM (inactive) in each case. Moreover, the Kd (in test [7]; at Activated CDC42 kinase 1; on DNA topoisomerase 2-beta) was > 30 µM (inactive) each time.
In the case of `CNS(=O)(=O)Nc1nccc(Cc2c(C)c3ccc(Oc4ncccn4)cc3oc2=O)c1F` [AVUTOMETINIB], the Kd in test [1], in test [2], in test [3], in test [4], in test [5] and in test [6] was > 30 µM (inactive) in each case. For the same compound, the Kd (in test [7]; at Activated CDC42 kinase 1; at DNA topoisomerase 2-beta) was > 30 µM (inactive) in each case.
